In ChEMBL document CHEMBL5543140 (J Med Chem, 2024):
Active and inactive are the calls of the source. The rule behind the calls is not given here.

How the values were obtained:
[1] = Ex vivo binding in C57BL/6J mouse brain frontal cortex assessed as inhibition of [3H]Cimbi-36 binding at 1 mg/kg, sc measured after 160 mins by liquid scintillation counting analysis (reference value: 0%); assay type: functional; conditions: 2.667 h
[2] = Ex vivo binding in C57BL/6J mouse brain frontal cortex assessed as inhibition of [3H]Cimbi-36 binding at 1 mg/kg, sc measured after 40 mins by liquid scintillation counting analysis (reference value: 0%); assay type: functional
[3] = system: Hippocampus; test: Induction of neuroplasticity in C57BL/6J mouse assessed as increase in BDNF mRNA expression in brain hippocampus at 0.3 mg/kg, sc single dose by RT-PCR analysis; assay type: functional, organism-based
[4] = Oral bioavailability in beagle dog at 2 mg/kg measured upto 24 hrs; assay type: ADME, organism-based, Canis lupus familiaris; conditions: in vivo
[5] = biological target: Adrenergic receptor alpha-2 (Rattus norvegicus) (UniProt P22086+P19328+P22909); test: Displacement of [3H]RX 821002 from rat cerebral cortex alpha2 adrenergic receptor assessed as remaining activity at 10 uM after 60 mins by scintillation counting method relative to control
[6] = Cmax in beagle dog at 2 mg/kg, po measured upto 24 hrs; assay type: ADME, organism-based, Canis lupus familiaris; conditions: in vivo
[7] = Half life in male Sprague-Dawley rat CSF at 1 mg/kg, iv measured upto 8 hrs by LC-MS/MS analysis; assay type: ADME, organism-based, Cerebrospinal fluid
[8] = Volume of distribution at steady state in beagle dog at 0.4 mg/kg, iv measured upto 24 hrs; assay type: ADME, organism-based, Canis lupus familiaris; conditions: in vivo, read-out: Vdss
[9] = MRTlast in Wistar rat plasma at 5 mg/kg, po measured upto 48 hrs; assay type: ADME, organism-based
[10] = system: Mus musculus; test: Psychedelic effect in C57BL/6J mouse assessed as induction of 5-HT2A receptor dependent maximal head-twitch responses by visual observation at 1 mg/kg, sc at 40 mins post- administration; assay type: functional, organism-based
[11] = Metabolic stability in mouse liver S9 fractions assessed as half life; assay type: ADME, subcellular; conditions: liver S9 fraction
[12] = Ex vivo binding in C57BL/6J mouse brain frontal cortex assessed as inhibition of [3H]Cimbi-36 binding at 1 mg/kg, sc measured after 100 mins by liquid scintillation counting analysis (reference value: 0%); assay type: functional; conditions: 1.667 h
[13] = system: Mus musculus; test: Psychedelic effect in C57BL/6J mouse assessed as development of tolerance/ tachyphylaxis at 0.3 mg/kg, sc measured on day 4 by head-twitch responses test; assay type: functional, organism-based; conditions: time 4.0 day
[14] = AUCinf in male Sprague-Dawley rat plasma at 1 mg/kg, iv measured upto 8 hrs by LC-MS/MS analysis; assay type: ADME, organism-based
[15] = Metabolic stability in rat liver microsomes assessed as half life at 1 uM incubated for 120 mins in presence of NADPH; assay type: ADME, Microsome
[16] = Cmax in male Sprague-Dawley rat plasma at 1 mg/kg, iv measured upto 8 hrs by LC-MS/MS analysis; assay type: ADME, organism-based
[17] = biological target: Muscarinic acetylcholine receptor M4 (Homo sapiens) (UniProt P08173); test: Displacement of [3H]4-DAMP from human recombinant muscarinic M4 receptor expressed in HEK293 cells at 10 uM incubated for 60 mins by radiometric based scintillation counter assay relative to control; assay type: cell-based
[18] = Renal clearance in beagle dog at 0.4 mg/kg, iv measured upto 24 hrs; assay type: ADME, organism-based, Canis lupus familiaris; conditions: in vivo
[19] = biological target: T1, Alpha-2A adrenergic receptor (Homo sapiens, UniProt P08913); test: Displacement of [3H]-rauwolscine from human recombinant adrenergic alpha-2A receptor expressed in CHO-K1 cells incubated for 60 mins by […] analysis relative to control; assay type: cell-based
[20] = AUCinf in male Sprague-Dawley rat CSF at 1 mg/kg, iv measured upto 8 hrs by LC-MS/MS analysis; assay type: ADME, organism-based, Cerebrospinal fluid
[21] = Tmax in Wistar rat plasma at 1 mg/kg, iv measured upto 48 hrs; assay type: ADME, organism-based
[22] = biological target: T1, Alpha-2A adrenergic receptor; test: Agonist activity at human recombinant adrenergic alpha-2A receptor expressed in CHO-K1 cells co-transfected with 22F-Glosensor assessed as inhibition of cAMP production measured after 30 mins incubation by Microbeta2Micro-plate counter analysis; assay type: functional, cell-based
[23] = system: Mus musculus; test: Psychedelic effect in C57BL/6J mouse assessed as head-twitch responses reversibility by visual observation at 3 mg/kg, sc once a day for 3 days following treatment free for 48 hrs followed by redosed at 3 mg/kg, sc; assay type: functional, organism-based; conditions: time 3.0 day
[24] = Ex vivo binding in C57BL/6J mouse brain frontal cortex assessed as inhibition of [3H]Cimbi-36 binding at 1 mg/kg, sc measured after 10 mins by liquid scintillation counting analysis (reference value: 0%); assay type: functional
[25] = Renal clearance in Wistar rat plasma at 1 mg/kg, iv measured upto 48 hrs; assay type: ADME, organism-based
[26] = biological target: T2, 5-hydroxytryptamine receptor 2C (Homo sapiens, UniProt P28335); test: Binding affinity to human [125I]LSD-labeled 5-HT2C receptor expressed in HEK293 cell membrane incubated for 60 mins; assay type: cell membranes
T2 sequence (P28335 whole entry): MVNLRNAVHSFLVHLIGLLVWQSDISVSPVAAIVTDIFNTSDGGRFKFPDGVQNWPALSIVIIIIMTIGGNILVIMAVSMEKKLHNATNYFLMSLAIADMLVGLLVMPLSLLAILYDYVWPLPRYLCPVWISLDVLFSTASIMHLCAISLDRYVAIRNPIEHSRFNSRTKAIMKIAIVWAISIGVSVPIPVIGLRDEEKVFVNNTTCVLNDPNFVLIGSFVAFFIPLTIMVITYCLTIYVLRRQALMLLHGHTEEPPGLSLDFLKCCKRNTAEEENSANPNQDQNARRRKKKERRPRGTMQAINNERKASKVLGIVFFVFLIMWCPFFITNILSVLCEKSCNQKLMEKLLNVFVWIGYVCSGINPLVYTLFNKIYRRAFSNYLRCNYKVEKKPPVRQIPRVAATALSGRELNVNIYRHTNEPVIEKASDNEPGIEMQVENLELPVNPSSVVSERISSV

[27] = biological target: 5-hydroxytryptamine receptor 6 (Homo sapiens, UniProt P50406); test: Displacement of [3H]LSD from 5-HT6 receptor (unknown origin) assessed as inhibition binding at 10 uM relative to control
[28] = biological target: 5-hydroxytryptamine receptor 3A (Homo sapiens) (UniProt P46098); test: Binding affinity to human 5-HT3 receptor (unknown origin) at 10 uM by radioligand displacement assay
Sequence of 5-hydroxytryptamine receptor 3A (Homo sapiens) (P46098 whole entry): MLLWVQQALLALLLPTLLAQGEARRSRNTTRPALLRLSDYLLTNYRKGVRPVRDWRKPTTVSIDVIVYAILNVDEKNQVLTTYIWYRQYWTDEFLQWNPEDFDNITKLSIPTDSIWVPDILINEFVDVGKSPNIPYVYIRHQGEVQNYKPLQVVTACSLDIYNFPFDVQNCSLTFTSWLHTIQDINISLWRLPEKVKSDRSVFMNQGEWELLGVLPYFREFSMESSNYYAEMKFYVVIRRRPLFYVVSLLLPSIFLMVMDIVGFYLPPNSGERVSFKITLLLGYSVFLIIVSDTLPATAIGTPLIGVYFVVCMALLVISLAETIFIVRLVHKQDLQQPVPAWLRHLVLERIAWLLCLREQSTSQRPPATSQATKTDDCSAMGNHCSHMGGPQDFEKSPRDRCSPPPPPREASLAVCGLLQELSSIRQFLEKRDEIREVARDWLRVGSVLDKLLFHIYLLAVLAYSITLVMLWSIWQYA

T1 sequence (P08913 whole entry): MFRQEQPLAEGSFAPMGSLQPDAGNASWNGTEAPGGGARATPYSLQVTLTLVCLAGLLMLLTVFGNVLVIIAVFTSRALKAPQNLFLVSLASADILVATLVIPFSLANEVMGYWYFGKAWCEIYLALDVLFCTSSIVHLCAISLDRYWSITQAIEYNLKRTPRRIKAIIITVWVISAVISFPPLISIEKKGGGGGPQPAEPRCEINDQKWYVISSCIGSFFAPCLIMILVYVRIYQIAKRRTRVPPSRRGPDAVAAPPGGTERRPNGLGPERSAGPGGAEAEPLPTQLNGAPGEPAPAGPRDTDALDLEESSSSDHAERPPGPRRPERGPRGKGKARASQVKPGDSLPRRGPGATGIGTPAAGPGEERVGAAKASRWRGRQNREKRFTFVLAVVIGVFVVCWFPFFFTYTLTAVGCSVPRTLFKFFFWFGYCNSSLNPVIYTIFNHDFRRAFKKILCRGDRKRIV
Sequence of Muscarinic acetylcholine receptor M4 (Homo sapiens) (P08173 whole entry): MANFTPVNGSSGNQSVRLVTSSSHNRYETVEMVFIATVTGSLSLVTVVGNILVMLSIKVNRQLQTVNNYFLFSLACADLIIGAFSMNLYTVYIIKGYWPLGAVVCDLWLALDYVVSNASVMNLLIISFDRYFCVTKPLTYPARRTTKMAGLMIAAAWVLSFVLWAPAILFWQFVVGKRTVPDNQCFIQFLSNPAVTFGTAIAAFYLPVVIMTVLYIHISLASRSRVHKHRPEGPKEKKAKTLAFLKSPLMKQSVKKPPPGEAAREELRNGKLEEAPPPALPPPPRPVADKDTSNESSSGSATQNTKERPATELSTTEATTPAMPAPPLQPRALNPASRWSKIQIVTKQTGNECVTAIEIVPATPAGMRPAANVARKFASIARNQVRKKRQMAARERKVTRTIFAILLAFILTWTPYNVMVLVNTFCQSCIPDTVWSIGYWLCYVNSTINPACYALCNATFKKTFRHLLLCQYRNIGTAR
Sequence of 5-hydroxytryptamine receptor 6 (P50406 whole entry): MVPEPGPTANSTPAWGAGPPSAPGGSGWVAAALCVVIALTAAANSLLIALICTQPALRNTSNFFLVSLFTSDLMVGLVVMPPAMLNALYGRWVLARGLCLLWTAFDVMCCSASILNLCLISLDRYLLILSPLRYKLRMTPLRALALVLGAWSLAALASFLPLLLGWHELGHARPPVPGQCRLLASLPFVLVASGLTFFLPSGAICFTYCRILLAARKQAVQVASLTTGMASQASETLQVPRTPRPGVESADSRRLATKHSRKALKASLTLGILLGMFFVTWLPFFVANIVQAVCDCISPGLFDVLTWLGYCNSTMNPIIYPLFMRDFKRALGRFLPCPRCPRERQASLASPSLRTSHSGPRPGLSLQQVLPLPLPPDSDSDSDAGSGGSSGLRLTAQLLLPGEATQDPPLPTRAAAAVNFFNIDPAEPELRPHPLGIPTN

## COc1cc([Se]C(F)(F)F)c(OC)cc1CCN.Cl
[1]
  inhibition in vivo at 1 mg/kg: 33%
[2]
  inhibition in vivo at 1 mg/kg: 33%
[3]
  Activity: inactive
[4]
  bioavailability: 138%
[5]
  Activity: 97%
[6]
  Cmax: 263 ng/mL
[7]
  half-life: 1.26 h
[8]
  Vd: 5.29 L/kg
[9]
  MRT last at 48 h: 2.25 h
[10]
  Activity: Active
[11]
  half-life: > 2 h
[12]
  inhibition in vivo at 1 mg/kg: 25%
[13]
  Activity: Active
[14]
  AUC(0-inf): 210 ng·h/mL
[15]
  half-life at 1 µM: 0.917 h
[16]
  Cmax: 250 ng/mL
[17]
  inhibition: 86%
[18]
  CL renal at 24 h: 0.6 mL/min/kg
[19]
  Ki: 72 nM
[20]
  AUC(0-inf): 51.4 ng·h/mL
[21]
  Tmax: 4.98 min
[22]
  EC50: 126 nM
[23]
  Activity: Active
[24]
  inhibition in vivo at 1 mg/kg: 9%
[25]
  CL renal at 48 h: 1.13 mL/min/kg
[26]
  Ki: 6.7 nM
[27]
  inhibition: 90%
[28]
  Activity: inactive
